{
  "source": "patent US20150072023A1",
  "about": "“[…] NITRIC OXIDE FOR TREATING RESPIRATORY DISEASES” (Advanced Inhalation Therapies (AIT) Ltd., priority 2013, published 2015)",
  "key": {"[1]": {"conditions": "cited from earlier work"}, "[2]": {"conditions": "in vivo; cited from earlier work"}, "[3]": {"assay": "Prospective phase I open label safety study of intermittent 160 ppm gNO inhalation in healthy adults", "assay_type": "in vivo, human", "description": "10 healthy adult volunteer subjects (5 males, 5 females), aged 20 to 62 years, were enrolled in the study after screening their medical history, a physical examination, pulmonary function tests and blood values. Exclusion criteria included individuals less than 19 years of age, pregnant females and unwilling to practice birth control during the study, diagnosed with pulmonary disease, epistaxis, hemoptysis, methemoglobinemia, organ transplant recipient or receiving antibiotic therapy.\nAfter obtaining informed consent, treatment was initiated within 5 days of enrollment. Subjects were housed in a hospital ward and received 160 ppm gNO for 30 minutes every four hours (Q4h), five times a day, for five consecutive days by inhalation. Subjects returned for follow-up evaluations 3, 7 and 21 days after the final gNO administration. Subject safety was determined by monitoring vital signs, methemoglobin levels, lung function, blood chemistry, hematology, prothrombin time, inflammatory cytokine/chemokines levels and endothelial activation. These parameters were compared to baseline and at various time-points during and after gNO administration.\nSubjects were administered gNO through a modified disposable mouthpiece to maximize mixing. Inspiration was spontaneously initiated by the subject from a conventional intermittent positive pressure breathing respirator (Mark-7, Carefusion, USA) in fixed flow mode delivering 48 liters per minute (LPM). Flows of gas were verified with a calibrated mass flow meter (TSI, USA). Gaseous nitric oxide (gNO, obtained at INOmax, Ikaria, USA) at a concentration of 800 ppm delivered at a flow of 12 LPM was titrated into a distal delivery port on the mouth piece connected to the respirator during inspiratory phase only (pressure switch). The Mark 7 respirator was supplied by an air/oxygen blender (Bird Sentry, Carefusion, USA) set to deliver 26% oxygen.\nThe levels of gNO, NO2, O2 and methemoglobin were monitored during the administration of gNO. The target gas mixture was 160 ppm gNO with a nitrogen dioxide (NO2) level of less than 5 ppm and an oxygen (O2) level ranging from 21% to 25%. Inspiratory NO, NO2 and O2 levels were continuously monitored by sampling from the mouthpiece sample port located about 6 millimeters from the mouth of the subject with an AeroNOx (Pulmonox, AB, Canada) NO, NO2 and O2 electrochemical analyzer. Delivery safety was determined by the number of occasions that NO2 exceeded 5 ppm, gNO exceeding 10% variation and O2 dropping below 20% during gNO administration. A commercially available noninvasive pulse oximeter (Rad 57, Masimo Corporation, USA) was used to measure saturation levels at the periphery of methemoglobin (SpMet).\nThese parameters were measured continuously during every gNO administration course and for 3.5 hours after the first treatment of the day. Daily serum samples were collected and frozen at −80° C. and the serum […] level was measured using the Griess reagent.\nSubjects underwent full pulmonary function tests (PFT), including lung diffusing capacity (DLCO) by a trained technician utilizing a calibrated pulmonary function system (Jaeger MasterScreen, VIASYS Healthcare, USA) on screening and days 2, 8, 12 and 26. Spirometry test (Microloop by Micro Medical, England) was performed on days 1, 3 and 4. Effect of gNO on lung function and DLCO was determined by changes from baseline, treatment days and follow up days.\nGeneral medical examinations were performed by a pulmonary physician on screening and on days 8, 12 and 26 to obtain oxygenation and vital sign measurements. Abbreviated physical examination by a registered nurse was carried out each day prior to initiation of treatments on days 1-5. Oxygenation was measured with a pulse oximeter (Rad 57, Masimo Corporation, USA) which was used according to manufacturer's guidelines to measure functional oxygen saturation of arterial hemoglobin (SpO2) and heart rate. […]"}, "[4]": {"tested_on": "influenza A/victoria/H3N2", "conditions": "160 ppm exogenous gNO, MDCK cell model; cited from earlier work"}, "[5]": {"conditions": "topical 200 ppm gNO, within the first three days of treatment; cited from earlier work"}, "[6]": {"tested_on": "highly pathogenic Avian Influenza H7N3", "conditions": "cited from earlier work"}, "[7]": {"tested_on": "P. aeruginosa", "conditions": "agar plates exposed to gNO; cited from earlier work"}, "[8]": {"assay": "Randomized double blind study of intermittent gNO inhalation in infants with bronchiolitis, interim results", "assay_type": "in vivo, human", "conditions": "infants 2-12 months", "description": "The following is an exemplary protocol for clinical studies based on the methods according to embodiments of the present invention, aimed at treatment of bronchiolitis in humans. Specifically, the topic of the study is a randomized double blind evaluation of efficacy, safety and tolerability of nitric oxide given intermittently via inhalation to subjects with bronchiolitis.\nAn improvised inhalation device is based on standard hospital equipment and hospital oxygen source. For example, oxygen is supplied from the main hospital oxygen system via an oxygen blender, such as for example, Bird model 03800, followed by a hospital's oxygen mass flow meter. The oxygen-rich air is monitored so as to reach a maximal final concentration of about 40% O2. The blended air/oxygen is supplied to the subject via a Y-shape connector attached next to a standard hospital face mask such as for example, a Hospiltak mask by Unomedical Inc.\ngNO flow, tapped from a tank containing 800 ppm nitric oxide in 99.999% pure N2, supplied by an authorized gas provider in, for example, 50 or 30 litter containers with 120 bar or 150 bar respectively, is adjusted by passing through a standard hospital's regulator, such as for example CareFusion™ model 400, and the hospital mass flow meter, such as a CareFusion™ model 77063.\nThe gNO flow is adjusted before each inhalation cycle based on the gNO concentration detected in the subject's mask. After a fresh system calibration, the regulator and the mass flow meter are adjusted to deliver 160 ppm of gNO at 5 to 15 liters per minute. gNO is supplied to the subject via the second arm of the Y shaped connector (specified above) attached next to the face mask. Mask and tubing ports are used to monitor continuously gNO and NO2 concentrations and FiO2 values delivered to the subject.\nHalitus (exhalation) is monitored by, for example, end-tidal CO2 (EtCO2). EtCO2 is monitored using standard equipment such as Microcap® Portable Capnography Monitor, Cat.# CSO4179 by Oridion, Israel, with nasal prongs such as (Infant Neonate Cat.#008179 by Oridion, Israel.\nMethemoglobin (SpMet) and oxygen saturation or dissolved oxygen (SpO2) levels are monitored continuously using a dedicated monitor such as for example RAD 57 by Masimo.\nThe population for the study is 44 children of 2-12 months old diagnosed with bronchiolitis, whom required hospitalization (expected dropout rate is 10%). The population is split into two groups: Group 1, referred to as the treatment group, receives intermittent (5×30 minutes, a day) inhalation of 160 ppm gNO in addition to the standard treatment of O2 administration, for up to 5 days. Between gNO inhalations, the subjects continue to receive the standard inhalation treatment (O2). Group 2, referred to as the control group, receives continuous inhalation of the standard treatment (O2).\nGroup 1 (treatment group) receives the standard treatment (O2) combined with the inhalation via face mask of […] administered for 30 minutes every four hours, keeping a minimum of 3 hours between the end of one gNO inhalation cycle and the beginning of the next cycle, five times a day for five consecutive days or until a decision to discontinue therapy. The maximal cumulative exposure to nitric oxide is estimate at 2,000 ppm hours."}, "[9]": {"tested_on": "five planktonic species of methicillin resistant S. aureus (MRSA)", "conditions": "1,600 ppm hours of gNO; cited from earlier work"}, "[10]": {"tested_on": "S. aureus", "conditions": "agar plates exposed to gNO; cited from earlier work"}, "[11]": {"conditions": "300 ppm gNO, first 1-2 days, group of 10 rats; cited from earlier work"}, "[12]": {"tested_on": "human respiratory syncytial virus (rgRSV30)", "assay": "Plaque assay of gNO-exposed respiratory syncytial virus", "assay_type": "cell-based", "conditions": "160 ppm exogenous gaseous NO"}, "[13]": {"conditions": "250 gNO administration procedures, 10 subjects"}, "[14]": {"conditions": "during and after gNO administration"}},
  "note": "“Also recorded” adds a separate entry of the source.",
  "data": [
    {"smiles": "[N]=O", "note": "[gNO, nitric oxide]", "values": [
      {"measurement": "inhalation threshold limit value (TLV) as time-weighted average (TWA)", "setting": "[1]; OSHA / Environmental Protection Agency", "result": 25, "unit": "ppm"},
      {"measurement": "TLV-TWA in ppm hours units", "setting": "[1]; calculated", "result": 200, "unit": "ppm hours"},
      {"measurement": "radius of action from its site of origin", "setting": "[2]", "result": "approximately 200 microns"},
      {"measurement": "average increase of SpMet in a single treatment course", "setting": "[3]; 160 ppm gNO for 30 minutes, ten individuals", "result": 0.9, "unit": "%"},
      {"measurement": "adverse events / tolerability", "setting": "[3]; [13]", "result": "do not cause lung injury or other signs of adverse effects in humans; also recorded: Neither significant adverse events nor adverse events attributable to gNO inhalation occurred; also recorded: safe and well tolerated; also recorded: no significant adverse events were observed"},
      {"measurement": "number of minor adverse events reported", "setting": "[3]; [13]", "result": "Three"},
      {"measurement": "plasma cytokine levels of TNF, IL-6, IL-8, IL-10, IL-1b and IL-12p70", "setting": "[3]; cytometric bead array, vs baseline", "result": "unaffected; also recorded: remained constant"},
      {"measurement": "pulmonary function tests", "setting": "[3]; [14]", "result": "impacts lung function only minimally; also recorded: remained unchanged compared to baseline values"},
      {"measurement": "vital signs", "setting": "[3]; [14]", "result": "remained well within acceptable clinical margins"},
      {"measurement": "accumulative or residual effect on SpMet", "setting": "[3]; five daily treatments for five consecutive days, follow-up 3, 7 and 21 days", "result": "no accumulative or lingering effect; also recorded: did not show any residual increase in SpMet"},
      {"measurement": "vascular endothelial activation factors Ang-1, Ang-2, Ang-2/Ang-1 ratio", "setting": "[3]; plasma, vs baseline", "result": "not affected; also recorded: unaffected"},
      {"measurement": "viral replication and infectivity", "setting": "[4]", "result": "reduced their infectivity; also recorded: capable of reducing the infectivity"},
      {"measurement": "biofilm", "setting": "[5]", "result": "no longer visibly present"},
      {"measurement": "viral replication and infectivity", "setting": "[6]", "result": "reduced their infectivity; also recorded: capable of reducing the infectivity"},
      {"measurement": "effect on bacterial growth", "setting": "[7]", "result": "bacteristatic effect"},
      {"measurement": "NO2 levels during treatment", "setting": "[8]", "result": "below 2 ppm"},
      {"measurement": "pre-methemoglobin levels in each treatment", "setting": "[8]", "result": "less than 5%"},
      {"measurement": "premature withdrawal due to NO related adverse effect", "setting": "[8]", "result": "no infant withdrew prematurely"},
      {"measurement": "tolerability", "setting": "[8]", "result": "All patients tolerated the NO treatment"},
      {"measurement": "time for SpMet to return to the baseline levels", "setting": "[8]; 160 ppm gNO 30 min", "result": 210, "unit": "min"},
      {"measurement": "bacterial population", "setting": "[9]", "result": "reduction in the population"},
      {"measurement": "effect on bacterial growth", "setting": "[10]", "result": "bacteristatic effect"},
      {"measurement": "number of animals that died", "setting": "[11]", "result": "Six"},
      {"measurement": "infectivity", "setting": "[12]", "result": "reduced their infectivity"}
    ]}
  ]
}
